“And” between values parts separate entries of the source, which are not always exact repeats. Identical values can stand only once.
What was measured:
[1] = test system: S. typhimurium TA98; test: Ames microplate test, TA98; format: cell-based, Salmonella typhimurium; conditions: positive control 0.5 μg/mL, + S9
Method: Bacteria were grown overnight in growth medium.

[2] = test system: S. typhimurium TA100; test: Ames microplate test, TA100; format: cell-based, Salmonella typhimurium; conditions: positive control 1.25 μg/mL, + S9
[3] = test system: S. typhimurium TA1535; test: Ames microplate test, TA1535; conditions: positive control 2.5 μg/mL, + S9;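 also: bacteria exposed 90 min at 37 °C in exposure medium, then 48 h in indicator medium in 384-well plates, yellow (revertant) wells counted per condition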
[4] = Lipophilicity coefficient RM0 by reversed phase thin layer chromatography; format: physicochemical; conditions: RP-18 TLC, methanol/phosphate buffer pH=7.4
Method: Confirmation of the identity and purity of the obtained compounds consisted in the registration and interpretation of 1H NMR and 13C NMR spectra (the spectra were recorded using an ECZR 500 MHZ (JEOL) series FT-NMR spectrophotometer), as well as the registration and interpretation of LC-MS spectra (the spectra were recorded using Acquita UPLC system (Waters) coupled with a Waters TQD mass spectrometer). The melting point was measured using the open capillary method in the IA9300 device (Electrothermal). The lipophilicity coefficient RM0 was determined by reversed phase thin layer chromatography. In the study, aluminum plates 20×20 cm covered with modified silica gel RP-18 F254 (Merck) were used as the solid phase. The mobile phase consisted of solutions of methanol and 100 mM phosphate buffer (pH=7.4), characterized by a variable methanol content ranging from 95 to 65% (v/v). The tested compounds were dissolved in methanol to obtain solutions with a concentration of 1 mg/mL. Then, […] of the solutions prepared in this way were transferred to the starting line on aluminum plates, which were then placed in chromatographic chambers previously saturated with mobile phase vapors for at least 1 hour. All activities, including the development of chromatograms, were carried out at room temperature. After developing the chromatograms to approximately 1-2 cm from the end of the plate, the plates were dried and then the distance traveled by the tested compounds was visualized under UV light (λ=254 nm). The experiment was performed in duplicate for the specified conditions. For all samples, Rf was calculated according to the formula Rf=a/b, where a—the distance traveled by the tested compound, b—the distance traveled by the mobile phase. Then, the RM parameter was calculated for all samples according to the formula RM=log (1/Rf−1), obtaining a linear relationship between the RM values and the methanol concentration in the mobile phase. The log P coefficient was also calculated using the following computer programs: ACD/ChemSketch 2020.1.2 and ChemDraw 20.0.0.41.

[5] = test system: B16-F10 murine melanoma cell line; test: Cytotoxicity (MTT) in B16-F10 murine melanoma cells; format: cell-based; conditions: 48 h
Method: Cytotoxicity Assessment in the B16-F10 Murine Melanoma Cell Line (ATTC CRL-6745)—Preliminary Safety Assessment for Subsequent Studies
In order to determine safe doses of compounds for testing the inhibition of melanogenesis in a murine melanoma cell line, cytotoxicity tests were performed. Cytotoxicity was determined by the colorimetric method using MTT ([3-(4,5-dimethyl-2-thiazolyl)-2,5-diphenyl-2H-tetrazolium bromide, Sigma M5655). For this purpose, cells were transferred to 96-well plates in an amount of 5000/well. After 24 h of culture in an incubator in F10-Ham medium with 1% FBS, the tested compounds at various concentrations were added to the wells together with fresh medium. DMSO was added to the medium in a negative control. The MTT test was performed after further culture for 48 h. Then the medium was removed and the formed formazan crystals were dissolved in DMSO. The absorbance was measured at 570 nm in a plate reader and the result was compared to the control (DMSO), which was 100%. The percentage of viability was calculated using the formula: [AT/AC*100], where AT is the absorbance of the test sample, AC—absorbance of the control sample.

[6] = molecular target: T1, tyrosinase from mushroom (Agaricus bisporus, UniProt C7FF04); test: Inhibition of commercial mushroom tyrosinase, substrate L-DOPA; format: biochemical; conditions: 500 μM; read-out: Tyrosinase inhibition with L-DOPA [%]
Method: (§1) Studies on the Inhibition of the Activity of Commercial Tyrosinase from Mushroom (Sigma: T3824)
(§2) The following substrates were used for the enzymatic reaction: L-tyrosine and L-3,4-dihyroxyphenylalanine (L-DOPA). Both substrates were used in independent experiments. According to the literature, the use of L-DOPA enables the assessment of tyrosinase diphenolase activity, and L-tyrosine—the tyrosinase monophenolase activity. The determinations were performed in 96-well plates, in each well there was placed: 170 μL or 127.5 μL of 50 mM phosphate buffer (pH=6.8) with tyrosinase (1U/well or 3U/well) and 10 μL of a solution of the tested compound in DMSO (the final concentration in the well was 500 μM, 250 μM or 125 μM). The negative control used 10 u L of pure solvent (DMSO). To initiate the reaction, an appropriate substrate was added: L-tyrosine (62.5 μL of solution in phosphate buffer) or L-DOPA (20 μL of solution in phosphate buffer). After a 25-minute incubation, the absorbance was measured at 475 nm using a microplate reader. The percentage of inhibition of tyrosinase activity was calculated using the formula: [(AC−AT)/[…], where AC—is the absorbance of the negative control, AT—is the absorbance of the sample containing the tested compound.

[7] = molecular target: T1, tyrosinase from mushroom; test: Inhibition of commercial mushroom tyrosinase, substrate L-tyrosine; format: biochemical; conditions: 500 μM; read-out: Tyrosinase inhibition with L-tyrosine [%]
Method: as §1, §2

T1 sequence (C7FF04 2-392): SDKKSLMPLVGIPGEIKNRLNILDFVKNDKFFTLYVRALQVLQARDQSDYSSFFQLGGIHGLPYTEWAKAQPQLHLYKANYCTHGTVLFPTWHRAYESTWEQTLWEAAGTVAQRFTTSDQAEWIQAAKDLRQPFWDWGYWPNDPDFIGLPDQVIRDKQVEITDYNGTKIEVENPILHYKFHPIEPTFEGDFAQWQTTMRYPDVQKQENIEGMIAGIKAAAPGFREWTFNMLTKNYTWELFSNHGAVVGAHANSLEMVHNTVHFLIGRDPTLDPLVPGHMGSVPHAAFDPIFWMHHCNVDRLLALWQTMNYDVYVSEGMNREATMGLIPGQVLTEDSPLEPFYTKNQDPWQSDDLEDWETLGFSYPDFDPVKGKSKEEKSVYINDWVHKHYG
T1 sequence (G1K3P4 entry or part of it, further chain): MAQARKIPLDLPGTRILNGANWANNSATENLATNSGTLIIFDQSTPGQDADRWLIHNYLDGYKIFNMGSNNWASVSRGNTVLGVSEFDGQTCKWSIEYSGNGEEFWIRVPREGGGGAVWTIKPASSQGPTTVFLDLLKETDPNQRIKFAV

Compound	Increase in the number of yellow wells compared to the reference level, TA98 [1]	Increase in the number of yellow wells compared to the reference level, TA100 [2]	Increase in the number of yellow wells compared to the reference level, TA1535 [3]	RM0 [4]	Cytotoxicity study in B16F10 cells, % viability ([5]; 150 μM) [%]	Cytotoxicity study in B16F10 cells, % viability ([5]; 200 μM) [%]	Cytotoxicity study in B16F10 cells, % viability ([5]; 250 μM) [%]	inhibition at 500 µM [6] [%]	inhibition at 500 µM [7] [%]
Nc1ccc2cc3ccccc3cc2c1 [Compound 2-AA, 2-aminoanthracene, reference compound]	24.00 and 15.03	4.00	–	–	–	–	–	–	–
Nc1c2ccccc2nc2ccccc12 [Compound 9-AA, reference compound]	–	–	10.25 and 15.41	–	–	–	–	–	–
CCC(CO)NC(=O)/C=C/c1ccc(Cl)cc1 (centres unmarked) [Compound A-01, (2E)-3-(4-chlorophenyl)-N-(1-hydroxybutan-2-yl)prop-2-enamide]	–	–	–	2.43	73.6	93.2	85.4	44 ± 2.6	61.8 ± 0.4
O=C(/C=C/c1ccccc1)NCCCCO [Compound A-43, (2E)-N-(4-hydroxybutyl)-3-phenylprop-2-enamide]	–	–	–	1.60	108.9	105.7	103.2	34.5 ± 4.18	35.5 ± 1.37
CCC(O)CNC(=O)/C=C/c1ccc(C)cc1 (centres unmarked) [Compound A-63, (2E)-N-(2-hydroxybutyl)-3-(4-methylphenyl)prop-2-enamide]	–	–	–	2.39	90.2	87.3	87.4	21.2 ± 1.26	30.2 ± 10.2
Cc1ccc(/C=C/C(=O)NC(C)CO)cc1 (centres unmarked) [Compound A-69, (2E)-N-(1-hydroxypropan-2-yl)-3-(4-methylphenyl)prop-2-enamide]	–	–	–	2.17	96.6	101.3	97.5	23 ± 6.64	4.4 ± 7.15
O=C(/C=C/c1ccc(Cl)cc1)N1CCC(O)CC1 [Compound A-99, (2E)-3-(4-chlorophenyl)-1-(4-hydroxypiperidin-1-yl)prop-2-en-1-one]	–	–	–	2.27	109.8	102.6	96.6	–	75.1 ± 1.6
CC(C)C(CO)NC(=O)/C=C/c1ccc(Cl)cc1 (centres unmarked) [Compound A-106, (2E)-3-(4-chlorophenyl)-N-(1-hydroxy-3-methylbutan-2-yl)prop-2-enamide]	–	–	–	2.76	85.9	88.1	72.6	41.2 ± 0.81	57.6 ± 2.11
CCC(CO)NC(=O)/C=C/c1ccc(Cl)cc1Cl (centres unmarked) [H-285/20, (2E)-3-(2,4-dichlorophenyl)-N-(1-hydroxybutan-2-yl)prop-2-enamide]	–	–	–	3.08	84.2	74.8	24.6	0.21 ± 5.64	14.6 ± 1.63
O=C(/C=C/c1ccc(Cl)cc1Cl)NCCCO [H-296/20, (2E)-3-(2,4-dichlorophenyl)-N-(3-hydroxypropyl)prop-2-enamide]	–	–	–	2.11	67.0	57.0	38.3	18.6 ± 1.67	17.9 ± 7.36
O=C(/C=C/c1ccc(Cl)cc1Cl)NCCCCCO [H-297/20, (2E)-3-(2,4-dichlorophenyl)-N-(5-hydroxypentyl)prop-2-enamide]	–	–	–	3.08	102.3	73.6	88.5	20.5 ± 2.84	19.1 ± 2.53
O=C(/C=C/c1ccc(Cl)cc1Cl)NCCCCO [H-298/20, (2E)-3-(2,4-dichlorophenyl)-N-(4-hydroxybutyl)prop-2-enamide]	–	–	–	2.78	46.5	40.6	37.4	11.2 ± 2.78	20 ± 2.96
O=C(/C=C/c1ccc(Cl)cc1Cl)N1CCC(O)CC1 [H-310/20, (2E)-3-(2,4-dichlorophenyl)-1-(4-hydroxypiperidin-1-yl)prop-2-en-1-one]	–	–	–	2.80	89.5	100.4	93.0	7.23 ± 0.81	19.2 ± 3.44
CCC(O)CNC(=O)/C=C/c1ccc(Cl)cc1Cl (centres unmarked) [H-320/21, (2E)-3-(2,4-dichlorophenyl)-N-(2-hydroxybutyl)prop-2-enamide]	–	–	–	3.08	101.7	90.8	33.9	5.8 ± 3.04	24.4 ± 8.05
